Source: patent publication US20160083400A1, “TRICYCLIC GUANIDINE DERIVATIVE” (Sunovion Pharmaceuticals Inc., priority 2014, published 2016)

Columns and labels:
Type in all cases: biochemical
PDE1B = PDE1B (Homo sapiens, UniProt Q01064); assay: In vitro HTRF PDE1 inhibition assay (PDE1B); settings: 100 nM cyclic GMP, calmodulin, 45 minutes at 37° C.
Description: The Cisbio cGMP HTRF assay kit (Cat no: 62GM2PEC) was utilized. Cyclic GMP was diluted to 200 nM in HTRF assay buffer (1 mM CaCl2, 10 mM MgCl2, 10 mM Tris-HCl, 0.1% BSA, pH7.4). […] PDE (1A3, 1B or 1C) was diluted to 2× working concentration in HTRF assay buffer with 4 μg/ml Calmodulin, and 10 μl was added to initiate the reaction. The plate was then incubated for 45 minutes at 37° C. d2-Labelled cyclic GMP and anti-cGMP cryptate were diluted in 50 mM phosphate buffer, 0.8M KF, 1% Triton X100, 0.2% BSA, pH7.0. Following incubation 10 μl d2-cGMP, then 10 μl anti cGMP cryptate were added to each well and the plate was incubated for 45 minutes at rt. The plate was then read on Perkin Elmer Victor at 2 different FRET readings ex/emm 340 nm/665 nm and 340 nm/615 nm.

PDE1A (PDE 1A3) = PDE1A (PDE 1A3) (Homo sapiens, UniProt P54750); assay: In vitro HTRF PDE1 inhibition assay (PDE1A); settings: PDE1A (1A3); 100 nM cyclic GMP, calmodulin, 45 minutes at 37° C.
From the text: (§1) An exemplary procedure for the in vitro Homogenous Time Resolved Fluorescence (HTRF) assay, which can be used to determine the inhibitory action of compounds of the invention toward PDE1 or its isoforms, follows.
(§2) The HTRF PDE1 assay utilized the HTRF technology, which is based on the competition between unlabeled cyclic nucleotide and cyclic nucleotide labeled with XL665 for the binding to cyclic nucleotide-specific antibody labeled with cryptate. The HTRF signal is thus inversely proportional to the concentration of cyclic nucleotide being measured. Since phosphodiesterases break down cyclic nucleotides the HTRF signal was used to determine PDE activity.
(§3) The Cisbio cGMP HTRF assay kit (Cat no: 62GM2PEC) was utilized. Cyclic GMP was diluted to 200 nM in HTRF assay buffer (1 mM CaCl2, 10 mM MgCl2, 10 mM Tris-HCl, 0.1% BSA, pH7.4). 10 μl of compound or DMSO was diluted in 200 nM cyclic GMP solution and added to wells of a 96 well white plate to give 100 nM cyclic GMP in 1% DMSO final concentration. PDE (1A3, 1B or 1C) was diluted to 2× working concentration in HTRF assay buffer with 4 μg/ml Calmodulin, and 10 μl was added to initiate the reaction. The plate was then incubated for 45 minutes at 37° C. d2-Labelled cyclic GMP and anti-cGMP cryptate were diluted in 50 mM phosphate buffer, 0.8M KF, 1% Triton X100, 0.2% BSA, pH7.0. Following incubation 10 μl d2-cGMP, then 10 μl anti cGMP cryptate were added to each well and the plate was incubated for 45 minutes at rt. The plate was then read on Perkin Elmer Victor at 2 different FRET readings ex/emm 340 nm/665 nm and 340 nm/615 nm.
(§4) Compounds having an IC50 of <1 μM, are denoted as +++. Compounds having an IC50 of 1-10 μM, are denoted as ++. Compounds having an IC50 of 10-100 μM, are denoted as +.

PDE1C = PDE1C (Homo sapiens, UniProt Q14123); assay: In vitro HTRF PDE1 inhibition assay (PDE1C)
From the text: as §1, §2, §3, §4

Chain of PDE1C (Q14123 whole entry): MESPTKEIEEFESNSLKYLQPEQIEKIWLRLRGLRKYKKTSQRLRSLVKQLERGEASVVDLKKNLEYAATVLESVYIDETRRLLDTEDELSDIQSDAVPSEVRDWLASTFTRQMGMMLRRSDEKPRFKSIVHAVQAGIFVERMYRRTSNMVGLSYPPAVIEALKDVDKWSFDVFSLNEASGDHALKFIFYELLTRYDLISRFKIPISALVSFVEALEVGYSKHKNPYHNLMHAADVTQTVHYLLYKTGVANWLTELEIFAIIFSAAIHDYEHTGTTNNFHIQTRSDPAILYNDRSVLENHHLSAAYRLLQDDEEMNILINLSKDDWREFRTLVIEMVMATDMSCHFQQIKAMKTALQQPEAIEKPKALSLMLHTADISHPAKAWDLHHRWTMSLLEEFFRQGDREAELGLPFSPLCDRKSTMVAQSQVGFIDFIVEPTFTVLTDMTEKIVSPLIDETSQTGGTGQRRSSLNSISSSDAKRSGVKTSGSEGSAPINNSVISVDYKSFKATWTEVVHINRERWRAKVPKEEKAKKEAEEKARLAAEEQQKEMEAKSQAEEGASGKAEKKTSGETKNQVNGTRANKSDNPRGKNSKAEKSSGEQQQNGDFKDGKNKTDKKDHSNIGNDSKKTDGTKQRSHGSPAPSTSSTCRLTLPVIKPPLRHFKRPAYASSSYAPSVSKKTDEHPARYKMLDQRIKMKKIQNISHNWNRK
Chain of PDE1A (PDE 1A3) (P54750 whole entry, canonical isoform): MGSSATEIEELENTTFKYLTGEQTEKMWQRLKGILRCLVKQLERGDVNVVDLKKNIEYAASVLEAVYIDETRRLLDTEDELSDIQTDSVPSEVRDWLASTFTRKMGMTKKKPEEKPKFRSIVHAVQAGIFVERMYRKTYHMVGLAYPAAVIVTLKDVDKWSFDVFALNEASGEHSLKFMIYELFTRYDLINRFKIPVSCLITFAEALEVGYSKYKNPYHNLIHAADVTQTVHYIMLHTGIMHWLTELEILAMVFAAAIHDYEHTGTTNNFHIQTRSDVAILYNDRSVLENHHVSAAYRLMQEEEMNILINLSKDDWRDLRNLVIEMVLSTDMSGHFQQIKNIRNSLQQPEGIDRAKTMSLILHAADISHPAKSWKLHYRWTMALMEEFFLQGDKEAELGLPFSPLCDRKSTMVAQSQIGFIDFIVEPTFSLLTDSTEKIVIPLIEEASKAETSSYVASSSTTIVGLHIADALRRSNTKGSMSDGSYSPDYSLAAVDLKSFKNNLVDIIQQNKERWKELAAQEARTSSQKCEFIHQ
Chain of PDE1B (Q01064 whole entry): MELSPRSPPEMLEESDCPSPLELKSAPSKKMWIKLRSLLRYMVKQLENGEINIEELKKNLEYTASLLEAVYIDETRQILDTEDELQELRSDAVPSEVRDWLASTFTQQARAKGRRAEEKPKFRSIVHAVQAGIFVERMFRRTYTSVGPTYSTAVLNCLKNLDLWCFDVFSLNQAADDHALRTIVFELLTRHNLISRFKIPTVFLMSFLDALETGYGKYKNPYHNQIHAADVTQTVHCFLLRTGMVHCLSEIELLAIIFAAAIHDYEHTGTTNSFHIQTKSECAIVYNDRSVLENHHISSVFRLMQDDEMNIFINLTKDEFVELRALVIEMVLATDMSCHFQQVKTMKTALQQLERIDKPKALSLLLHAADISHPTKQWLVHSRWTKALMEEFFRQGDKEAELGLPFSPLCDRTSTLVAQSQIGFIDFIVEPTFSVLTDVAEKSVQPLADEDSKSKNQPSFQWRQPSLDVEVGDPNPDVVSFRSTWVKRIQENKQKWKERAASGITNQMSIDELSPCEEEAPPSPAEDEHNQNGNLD

CC[C@@H](C)c1ncc2c(=O)n3c(nn12)N[C@@H](c1ccc(Cl)cc1)CC3 [Example 226]
IC50 (PDE1B): < 1 µM | IC50 (PDE1A (PDE 1A3)): < 1 µM | IC50 (PDE1C): < 1000 nM

CC(C)n1ncc2c(=O)n3c(nc21)N[C@@H](c1ccc(Cl)cc1)C3 [Example 144]
IC50 (PDE1B): < 1 µM | IC50 (PDE1A (PDE 1A3)): < 1 µM | IC50 (PDE1C): < 1000 nM

CC(C)c1ncc2c(=O)n3c(nn12)NCCC3 [Example 52]
IC50 (PDE1B): < 1 µM | IC50 (PDE1A (PDE 1A3)): 1 to 10 µM | IC50 (PDE1C): 1000 to 10000 nM

CC(C)n1ncc2c(=O)n3c(nc21)NC(c1ccc(C(F)(F)F)cc1)CC3 (stereo not drawn) [Example 29]
IC50 (PDE1B): < 1 µM | IC50 (PDE1A (PDE 1A3)): < 1 µM | IC50 (PDE1C): 1000 to 10000 nM

O=c1c2cnc(C3CCOCC3)n2nc2n1C[C@H](c1ccc(Cl)cc1)N2 [Example 139]
IC50 (PDE1B): < 1 µM | IC50 (PDE1A (PDE 1A3)): < 1 µM | IC50 (PDE1C): 1000 to 10000 nM

CC(C)c1ncnc2c(=O)n3c(nc12)NC(c1ccc(Cl)cc1)CC3 (stereo not drawn) [Example 176]
IC50 (PDE1B): < 1 µM | IC50 (PDE1A (PDE 1A3)): < 1 µM | IC50 (PDE1C): 1000 to 10000 nM

CC(C)n1ncc2c(=O)n3c(nc21)N[C@@H](c1ccc(Cl)cc1)CC3 [Example 27]
IC50 (PDE1B): < 1 µM | IC50 (PDE1A (PDE 1A3)): < 1 µM | IC50 (PDE1C): 1000 to 10000 nM

O=c1c2cnn(C3CCCC3)c2nc2n1CCC(c1ccc(Cl)cc1)N2 (stereo not drawn) [Example 4]
IC50 (PDE1B): < 1 µM | IC50 (PDE1A (PDE 1A3)): 1 to 10 µM | IC50 (PDE1C): 1000 to 10000 nM

O=c1c2cnc(C3COC3)n2nc2n1CC[C@H](c1ccc(Cl)cc1)N2 [Example 165]
IC50 (PDE1B): < 1 µM | IC50 (PDE1A (PDE 1A3)): < 1 µM | IC50 (PDE1C): 1000 to 10000 nM

O=c1c2cnc([C@H]3CCOC3)n2nc2n1CC[C@H](c1ccc(Cl)cc1)N2 [Example 225]
IC50 (PDE1B): < 1 µM | IC50 (PDE1A (PDE 1A3)): < 1 µM | IC50 (PDE1C): < 1000 nM

O=c1c2cnc(C3CCCC3)n2nc2n1CC[C@H](c1ccc(Cl)cc1)N2 [Example 61]
IC50 (PDE1B): < 1 µM | IC50 (PDE1A (PDE 1A3)): < 1 µM | IC50 (PDE1C): < 1000 nM

O=c1c2cnc(C3CCOCC3)n2nc2n1CC[C@H](c1ccc(Cl)cc1)N2 [Example 69, (2R)-2-(4-Chlorophenyl)-9-(tetrahydro-2H-pyran-4-yl)-1,2,3,4-tetrahydro-6H-imidazo[5,1-f]pyrimido[2,1-c][1,2,4]triazin-6-one]
IC50 (PDE1B): < 1 µM | IC50 (PDE1A (PDE 1A3)): < 1 µM | IC50 (PDE1C): < 1000 nM

CC(C)(O)c1ncc2c(=O)n3c(nn12)N[C@@H](c1ccc(Cl)cc1)CC3 [Example 242]
IC50 (PDE1B): < 1 µM | IC50 (PDE1A (PDE 1A3)): < 1 µM | IC50 (PDE1C): 1000 to 10000 nM

Cc1ccc([C@H]2CN3C(=O)c4cnc(C(C)C)n4NC3=N2)cc1 [Example 96, (2S)-8-Isopropyl-2-(4-methylphenyl)-2,10-dihydro-3H,5H-diimidazo[2,1-c:5′,1′-f][1,2,4]triazin-5-one]
IC50 (PDE1B): < 1 µM | IC50 (PDE1A (PDE 1A3)): < 1 µM | IC50 (PDE1C): < 1000 nM

COc1ccc([C@H]2Cn3c(nn4c(C5CCOCC5)ncc4c3=O)N2)cc1 [Example 151, (2S)-2-(4-Methoxyphenyl)-8-(tetrahydro-2H-pyran-4-yl)-2,10-dihydro-3H,5H-diimidazo[2,1-c:5′,1′-f][1,2,4]triazin-5-one]
IC50 (PDE1B): < 1 µM | IC50 (PDE1A (PDE 1A3)): < 1 µM | IC50 (PDE1C): < 1000 nM

CO[C@H](C)c1ncc2c(=O)n3c(nn12)N[C@@H](c1ccc(Cl)cc1)CC3 [Example 260]
IC50 (PDE1B): < 1 µM | IC50 (PDE1A (PDE 1A3)): < 1 µM | IC50 (PDE1C): 1000 to 10000 nM

O=c1c2cnc([C@@H]3CCOC3)n2nc2n1CC[C@H](c1ccc(Cl)cc1)N2 [Example 224]
IC50 (PDE1B): < 1 µM | IC50 (PDE1A (PDE 1A3)): < 1 µM | IC50 (PDE1C): 1000 to 10000 nM

O=c1c2cnc(C3CCOCC3)n2nc2n1CCC(c1ccc(Cl)cc1)N2 (stereo not drawn) [Example 55]
IC50 (PDE1B): < 1 µM | IC50 (PDE1A (PDE 1A3)): < 1 µM | IC50 (PDE1C): 1000 to 10000 nM

CC(C)c1ncc2c(=O)n3c(nn12)NC(c1ccc(Cl)cc1)CC3 (stereo not drawn) [Example 46]
IC50 (PDE1B): < 1 µM | IC50 (PDE1A (PDE 1A3)): 10 to 100 µM | IC50 (PDE1C): 1000 to 10000 nM

O=c1c2ncnc(C3CCOCC3)c2nc2n1CCC(c1ccc(Cl)cc1)N2 (stereo not drawn) [Example 265, 7-(4-Chlorophenyl)-4-(tetrahydro-2H-pyran-4-yl)-5,7,8,9-tetrahydro-11H-dipyrimido[1,2-a:5′,4′-d]pyrimidin-11-one]
IC50 (PDE1B): < 1 µM | IC50 (PDE1A (PDE 1A3)): < 1 µM | IC50 (PDE1C): 1000 to 10000 nM
